Data as given in ChEMBL document CHEMBL5725756, “Bifunctional compounds and use for reducing uric acid levels” (2018).

Target: Xanthine dehydrogenase/oxidase (Homo sapiens, UniProt P47989)
Experiment: xanthine oxidase activity: Xanthine oxidase inhibition was determined using a standard fluorescence-based assay for xanthine oxidase activity (McHale A, Grimes H, Coughlan M P: Int J Biochem. 10:317-9, 1979) with minor variations. […] Experiments on test compounds were performed in triplicate in multi-well plates using 10 concentrations of each compound that ranged over a 3-fold dilution.

Chain of Xanthine dehydrogenase/oxidase (P47989 whole entry): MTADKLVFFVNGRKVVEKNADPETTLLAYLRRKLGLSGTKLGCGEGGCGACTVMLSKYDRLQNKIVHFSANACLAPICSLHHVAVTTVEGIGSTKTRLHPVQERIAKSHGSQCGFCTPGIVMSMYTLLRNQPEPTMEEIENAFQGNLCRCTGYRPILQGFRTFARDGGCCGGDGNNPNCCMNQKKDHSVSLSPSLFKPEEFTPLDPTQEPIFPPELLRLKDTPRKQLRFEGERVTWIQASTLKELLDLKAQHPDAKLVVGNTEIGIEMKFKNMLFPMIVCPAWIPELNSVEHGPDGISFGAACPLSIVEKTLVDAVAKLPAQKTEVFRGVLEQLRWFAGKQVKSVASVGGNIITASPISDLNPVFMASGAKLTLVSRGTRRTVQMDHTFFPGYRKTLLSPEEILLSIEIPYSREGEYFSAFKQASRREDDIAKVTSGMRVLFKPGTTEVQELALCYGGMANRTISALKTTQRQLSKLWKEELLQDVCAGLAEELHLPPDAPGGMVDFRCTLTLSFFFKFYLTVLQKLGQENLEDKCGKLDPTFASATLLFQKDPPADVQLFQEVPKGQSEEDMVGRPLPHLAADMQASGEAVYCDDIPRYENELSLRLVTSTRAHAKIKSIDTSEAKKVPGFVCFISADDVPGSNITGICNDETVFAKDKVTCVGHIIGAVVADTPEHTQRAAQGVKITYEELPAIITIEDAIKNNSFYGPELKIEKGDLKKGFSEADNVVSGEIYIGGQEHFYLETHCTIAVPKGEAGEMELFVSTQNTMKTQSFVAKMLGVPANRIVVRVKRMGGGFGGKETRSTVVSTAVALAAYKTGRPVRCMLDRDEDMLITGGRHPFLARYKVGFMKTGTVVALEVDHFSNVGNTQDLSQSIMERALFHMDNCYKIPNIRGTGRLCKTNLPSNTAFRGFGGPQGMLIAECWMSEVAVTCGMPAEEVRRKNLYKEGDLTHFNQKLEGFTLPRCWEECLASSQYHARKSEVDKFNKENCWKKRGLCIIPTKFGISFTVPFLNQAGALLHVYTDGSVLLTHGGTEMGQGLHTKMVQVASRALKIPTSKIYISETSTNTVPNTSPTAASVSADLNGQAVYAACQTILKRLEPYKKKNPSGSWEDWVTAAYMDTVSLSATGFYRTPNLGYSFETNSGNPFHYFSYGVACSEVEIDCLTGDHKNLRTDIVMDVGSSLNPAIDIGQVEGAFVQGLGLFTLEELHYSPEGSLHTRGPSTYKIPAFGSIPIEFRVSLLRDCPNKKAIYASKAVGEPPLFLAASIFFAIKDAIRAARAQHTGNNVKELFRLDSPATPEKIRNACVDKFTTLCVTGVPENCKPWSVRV

## O=C(O)CSc1nnc(Br)n1-c1ccc(C2CC2)c2ccccc12
  IC50: > 300 µM
